Results taken from US6515025B2, “Use of ethynyl alanine amino diol compounds to inhibit enzymatic conversion of angiotensinogen to angiotensin I” (Pharmacia Corporation, priority 1991, dated 2003).
Read-outs that look alike come from different tables or passages of the source.

Assay: Oral bioavailability studies in marmosets (plasma concentration by bioassay)
Format: in vivo
Details: plasma
Experimental: The bioavailability in marmosets and dogs was determined by sampling the blood via the femoral vein at various time points after administering the renin inhibitor compounds of the invention in polyethylene glycol 400 at an intragastric dose of 10 mg/kg or at an intravenous dose of 1 mg/kg. Compound concentration in plasma was determined using the bioassay technique described below. The percent bioavailability was calculated by dividing the area under the concentration-vs.-time curve obtained from the intragastric experiment by the area under the concentration-vs.-time curve obtained from the intravenous experiment (adjusting for different doses), and multiplying the result by 100%. The bioavailibility of Example 1 compound is 27% in marmosets and 33% in dogs.
Renin inhibitor plasma concentrations were determined by a bioassay. The plasma samples were extracted with acetonitrile and the extract was evaporated to dryness under nitrogen. Residue was dissolved in 4% bovine serum albumin containing 0.9% NaCl and 5% EDTA. The dissolved residue (0.1 ml) was incubated with a reaction mixture containing human plasma (0.12 ml), 5% phenylmethysulfonylfluoride (1.2 ul), 10% neomycin (2.4 ul), 0.5 M TES buffer (pH 7.4, 24 ul), and 0.6 mU/ml recombinant human renin (1000 U/mg, 50 ul) at 37° C. for 90 minutes. The renin activity was determined by a standard angiotensin I radioimmunoassay (New England Nuclear Corp.). The amount of test compound in the plasma was determined by comparing the extent of inhibition of renin activity with that produced by a known amount of test compound added to plasma and analyzed above.

[1] = marmoset, iv, 1 mg/kg, marmoset, IV at 1 mg/kg, Test Run D table, read-out: Plasma Concentrations, Mean ± SE
[2] = marmoset, iv, 1 mg/kg, marmoset, IV at 1 mg/kg, Test Run C, individual animals, read-out: Plasma Concentrations
[3] = marmoset, iv, 1 mg/kg, marmoset, IV at 1 mg/kg, Test Run D, individual animals, read-out: Plasma Concentrations
[4] = marmoset, oral, 10 mg/kg, marmoset, IG at 10 mg/kg, Test Run B, read-out: Plasma Concentrations, Mean ± SE
[5] = marmoset, oral, 10 mg/kg, marmoset, IG at 10 mg/kg, Test Run A, individual animals, read-out: Plasma Concentrations
[6] = marmoset, oral, 10 mg/kg, marmoset, IG at 10 mg/kg, Test Run B, individual animals, read-out: Plasma Concentrations

concentration at 30 min [1]: 4940 ± 1510 ng/mL
concentration at 1 h [1]: 2430 ± 326 ng/mL
concentration at 2 h [1]: 1240 ± 271 ng/mL
concentration at 3 h [1]: 578 ± 90 ng/mL
concentration at 4 h [1]: 691 ± 160 ng/mL
concentration at 6 h [1]: 176 ± 31 ng/mL
concentration at 2 min [2]: 13700 ng/mL
concentration at 30 min [2]: 5860 ng/mL
concentration at 1 h [2]: 3090 ng/mL
concentration at 3 h [2]: 486 ng/mL
concentration at 6 h [2]: 264 ng/mL
concentration at 2 min [3]: 4200 ng/mL
concentration at 30 min [3]: 1950 ng/mL
concentration at 2 h [3]: 554 ng/mL
concentration at 6 h [3]: 95 ng/mL
concentration at 30 min [4]: 4990 ± 1750 ng/mL
concentration at 1 h [4]: 3840 ± 1820 ng/mL
concentration at 2 h [4]: 3960 ± 2000 ng/mL
concentration at 3 h [4]: 4510 ± 939 ng/mL
concentration at 4 h [4]: 3360 ± 1730 ng/mL
concentration at 5 h (marmoset, oral, 10 mg/kg, marmoset, IG at 10 mg/kg, 5 hr, Test Run B, read-out: Plasma Concentrations, Mean ± SE): 2460 ± 1170 ng/mL
concentration at 6 h [4]: 3430 ± 457 ng/mL
concentration at 8 h [4]: 2610 ± 400 ng/mL
concentration at 30 min [5]: 9860 ng/mL
concentration at 1 h [5]: 1340 ng/mL
concentration at 2 h [5]: 1560 ng/mL
concentration at 3 h [5]: 7050 ng/mL
concentration at 6 h [5]: 4910 ng/mL
concentration at 8 h [5]: 3570 ng/mL
concentration at 30 min [6]: 1340 ng/mL
concentration at 6 h [6]: 2860 ng/mL
concentration at 8 h [6]: 1800 ng/mL
bioavailability (marmoset, oral, marmosets, IG 10 mg/kg vs IV 1 mg/kg): 27%
half-life (monkey, marmosets, read-out: terminal half-life (converted)): 1.5 h
Vd (monkey, marmosets, read-out: volume of distribution): 0.2 L/kg
SMILES: C#CC[C@H](NC(=O)C(CC(=O)N(C)CCN(C)C)Cc1ccccc1)C(=O)NC(CC1CCCCC1)[C@@H](O)C(O)CC(C)C (relative stereo) [Example 1, N1-[1R*-[[[1S,1R*-(cyclohexylmethyl)-2S*,3R*-dihydroxy-5-methylhexyl]amino]carbonyl]-3-butynyl]-N4-[2-(dimethylamino)ethyl]-N4-methyl-2S*-(phenylmethyl)butanediamide]
